# Test results from paper PMC7970697, “Inhibition and Induction by Poziotinib of Different Rat Cytochrome P450 Enzymes In Vivo and in an In Vitro Cocktail Method” (Frontiers in Pharmacology, 2021).
# Legend:
# [1] = test system: cytochrome P450 (CYP) enzymes; set-up: method as in Dungo et al., 2013; conditions: ref Dungo et al., 2013; cited from earlier work
# cyp2b1 = test system: cyp2b1; set-up: method as in Ma et al., 2015; conditions: in rats; ref Ma et al., 2015; cited from earlier work
# CYP2C9 = conditions: 2019, cited from earlier work
# CYP2D6 = conditions: cited from earlier work
# in vivo = conditions: for Vd/F: Vz/F
# Procedure: Samples were analyzed by a UPLC-MS/MS system equipped with a triple quadrupole mass spectrometer (Waters Corp., Milford, MA, United States) and Acquity UPLC BEH C18 column (1.7 μm, 2.1 × 50 mm) at 40°C. The mobile phase consisted of acetonitrile (A) and 0.1% formic acid (B) with a linear gradient elution at 0.4 ml/min for 3 min.
# Twelve male Sprague-Dawley rats (230 ± 20 g) were randomly divided into treated and control groups, with 6 in each group. […] The supernatant was mixed with 200 μL of acetonitrile and 20 μL of 0.5 μg/ml diazepam (IS), vortexed for 30 s, centrifuged at 13,000 rpm for 5 min, and the supernatant was injected into the UPLC-MS/MS system for analysis.
# Pharmacokinetic parameters were calculated using DAS software (Version 3.2.8). SPSS software (version 16.0; SPSS Inc., Chicago, IL, United States) was used to analyze the significance of differences between the main pharmacokinetic parameters. p < 0.05 was considered statistically significant. GraphPad (version 8.0; GraphPad Software Inc., San Diego, CA, United States) was used to calculate IC50 and plot the plasma concentration-time curves and inhibition plots (type of inhibition, time- and concentration-dependence).
# [2] = male, Sprague-Dawley, rat, in vivo, po
# [3] = male, Sprague-Dawley, rat, plasma, po, Control group: oral probe cocktail only (10 mg/kg; tolbutamide 1 mg/kg), rats, n = 6
# [4] = male, Sprague-Dawley, rat, plasma, po, Treated group: oral probe cocktail (10 mg/kg; tolbutamide 1 mg/kg) after 7 days oral poziotinib 5 mg/kg, rats, n = 6
# [5] = rats, poziotinib 5 mg/kg 7 days vs probes only
# [6] = rats, poziotinib 5 mg/kg 7 days vs probes only (Discussion)
smiles,measurement,setting,value
CN(C)C/C=C/C(=O)Nc1cc2c(Nc3ccc(F)c(Cl)c3)ncnc2cc1O[C@H]1CCOC1 [Afatinib],inhibition or induction of CYP enzymes,[1],no inhibition or induction
C#Cc1cccc(Nc2ncnc3cc(OCCOC)c(OCCOC)cc23)c1 [Erlotinib],effect on cyp2b1 activity,cyp2b1,may inhibit
same,"effect on metabolism of warfarin, a CYP2C9 substrate","CYP2C9; in human, ref Hiraide et al.",inhibit warfarin metabolism
COc1cc2ncnc(Nc3ccc(F)c(Cl)c3)c2cc1OCCCN1CCOCC1 [Gefitinib],effect on CYP2D6,"CYP2D6; ref Prommer, 2004, Hiraide et al., 2019",inhibit
same,effect on CYP2C9,"CYP2C9; ref Prommer, 2004, Hiraide et al.",inhibit
CCCCNC(=O)NS(=O)(=O)c1ccc(C)cc1 [Tolbutamide],Tmax,in vivo; [2],2.67 ± 0.52 h
same,t1/2z,in vivo; [2],9.10 ± 4.20 h
same,Tmax,"in vivo; male, Sprague-Dawley, rat, in vivo, po, Tmax",2.33 ± 0.52 h
same,half-life,"in vivo; male, Sprague-Dawley, rat, in vivo, po, t1/2z",12.7 ± 4.84 h
same,CL/F,"in vivo; male, Sprague-Dawley, rat, plasma, po, CLz/F, Control group: oral probe cocktail only (10 mg/kg; tolbutamide 1 mg/kg), rats, n = 6",0.333 mL/min/kg
same,Cmax,in vivo; [3],3700 ng/mL
same,Cmax,in vivo; [4],4920 ng/mL
same,Vd/F,in vivo; [3],0.27 ± 0.04 L/kg
same,Vd/F,in vivo; [4],0.25 ± 0.1 L/kg
same,"AUC (0–∞) increasing by, treated vs control group",in vivo; [5],51.60%
same,CLz/F lower than control group by,in vivo; [5],50%
same,AUC(0–t) of treated group as fold of control group value,in vivo; [6],1.43 fold
same,CLz/F of treated group as fold of control group value,in vivo; [6],0.5 fold
COc1cc2ncnc(Nc3ccc(F)c(Cl)c3)c2cc1NC(=O)/C=C/CN1CCCCC1 [dacomitinib],effect on CY2D6,"CYP2D6; ref Shirley, 2018",potent inhibitor
